Experiments:
corn [1] = assay: Test C preemergence; format: in vivo, Zea mays; settings: for Corn plant response rating: preemergence; for Plant response rating, Corn: Preemergence
How it was run: (§1)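 Test material, in non-phytotoxic solvent with surfactant, was sprayed on the soil directly after seeding (preemergence) or on young plants of 2–10 cm with one to two leaves (postemergence). Greenhouse, 10 days; 0–100 visual control scale.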

wheat [2] = assay: Test C preemergence; format: in vivo, Triticum aestivum; settings: for Wheat plant response rating: preemergence; for Plant response rating, Wheat: Preemergence
How it was run: as §1

kochia [3] = assay: Test C postemergence; format: in vivo, Bassia scoparia; settings: 10 days
How it was run: as §1

green foxtail [4] = assay: Test C preemergence; format: in vivo, Setaria viridis; settings: for Foxtail, Green plant response rating: preemergence; for Plant response rating, Foxtail, Green: Preemergence
How it was run: as §1

pigweed, palmer [5] = assay: Test C preemergence; format: in vivo, Amaranthus palmeri; settings: for Pigweed, Palmer plant response rating: preemergence; for Plant response rating, Pigweed, Palmer: Preemergence
How it was run: as §1

barnyardgrass [6] = assay: Test C preemergence; format: in vivo, Echinochloa crusgalli; settings: for Barnyardgrass plant response rating: preemergence; for Plant response rating, Barnyardgrass: Preemergence
How it was run: as §1

barnyardgrass [7] = assay: Test C postemergence; format: in vivo, Echinochloa crusgalli; settings: 10 days
How it was run: as §1

ryegrass, Italian [8] = assay: Test C preemergence; format: in vivo, Lolium multiflorum; settings: for Ryegrass, Italian plant response rating: preemergence; for Plant response rating, Ryegrass, Italian: Preemergence
How it was run: as §1

blackgrass [9] = assay: Test C preemergence; format: in vivo, Alopecurus myosuroides; settings: for Blackgrass plant response rating: preemergence; for Plant response rating, Blackgrass: Preemergence
How it was run: as §1

oat, wild [10] = assay: Test C postemergence; format: in vivo, Avena fatua; settings: 10 days
How it was run: as §1

rice = assay: Test D flooded paddy test; format: in vivo, Oryza sativa; settings: 250 g ai/ha, applied to paddy water, visual rating after 13 to 14 days, scale 0 to 100 (0 no effect, 100 complete control)
How it was run: (§2)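 Post-flood water application at the 2-leaf stage; 3 cm flood depth kept constant; visual control rating 0–100 after 13–14 days greenhouse growth.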

soybean [11] = assay: Test C postemergence; format: in vivo, Glycine max; settings: 10 days
How it was run: as §1

blackgrass [12] = assay: Test C postemergence; format: in vivo, Alopecurus myosuroides; settings: 10 days
How it was run: as §1

kochia [13] = assay: Test C preemergence; format: in vivo, Bassia scoparia; settings: for Kochia plant response rating: preemergence; for Plant response rating, Kochia: Preemergence
How it was run: as §1

pigweed, palmer [14] = assay: Test C postemergence; format: in vivo, Amaranthus palmeri; settings: 10 days
How it was run: as §1

corn [15] = assay: Test C postemergence; format: in vivo, Zea mays; settings: 10 days
How it was run: as §1

ragweed [16] = assay: Test C preemergence; format: in vivo, Ambrosia artemisiifolia; settings: for Ragweed plant response rating: preemergence; for Plant response rating, Ragweed: Preemergence
How it was run: as §1

green foxtail [17] = assay: Test C postemergence; format: in vivo, Setaria viridis; settings: 10 days
How it was run: as §1

soybean [18] = assay: Test C preemergence; format: in vivo, Glycine max; settings: for Soybean plant response rating: preemergence; for Plant response rating, Soybean: Preemergence
How it was run: as §1

ryegrass, Italian [19] = assay: Test C postemergence; format: in vivo, Lolium multiflorum; settings: 10 days
How it was run: as §1

barnyardgrass [20] = assay: Test D flooded paddy test; format: in vivo, Echinochloa crus-galli; settings: 250 g ai/ha, applied to paddy water, visual rating after 13 to 14 days, scale 0 to 100 (0 no effect, 100 complete control)
How it was run: as §2

wheat [21] = assay: Test C postemergence; format: in vivo, Triticum aestivum; settings: 10 days
How it was run: as §1

sedge, umbrella = assay: Test D flooded paddy test; format: in vivo, Cyperus difformis; settings: 250 g ai/ha, applied to paddy water, visual rating after 13 to 14 days, scale 0 to 100 (0 no effect, 100 complete control)
How it was run: as §2

horseweed = assay: Test C postemergence; format: in vivo, Erigeron canadensis; settings: 10 days
How it was run: as §1

oat, wild [22] = assay: Test C preemergence; format: in vivo, Avena fatua; settings: for Oat, Wild plant response rating: preemergence; for Plant response rating, Oat, Wild: Preemergence
How it was run: as §1

ducksalad = assay: Test D flooded paddy test; format: in vivo, Heteranthera limosa; settings: 250 g ai/ha, applied to paddy water, visual rating after 13 to 14 days, scale 0 to 100 (0 no effect, 100 complete control)
How it was run: as §2

ragweed [23] = assay: Test C postemergence; format: in vivo, Ambrosia artemisiifolia; settings: 10 days
How it was run: as §1

[24] = 500 g ai/ha, 0 to 100 scale (0 no effect, 100 complete control)
[25] = 125 g ai/ha, 0 to 100 scale, 0 no effect, 100 complete control
[26] = 500 g ai/ha, postemergence, 0 to 100 scale (0 no effect, 100 complete control)
[27] = Postemergence, 125 g ai/ha, 0 to 100 scale (0 no effect, 100 complete control)
[28] = 500 g ai/ha, visual rating after 10 days, 0 to 100 scale (0 no effect, 100 complete control)
[29] = Test C, 125 g ai/ha, 0 to 100 scale (0 no effect, 100 complete control)
[30] = 125 g ai/ha, postemergence, 0 to 100 scale, 0 no effect, 100 complete control
[31] = Postemergence, 500 g ai/ha, visual 0 to 100 scale (0 no effect, 100 complete control)

Compound: CCOC[C@H]1CN(C(=O)c2cc(-n3cnc(C4CCC4)n3)cc3c2OCO3)c2cccc(Cl)c2O1 [Compound 399]
- Corn plant response rating (corn [1]; [24]): 0
- Plant response rating, Corn (corn [1]; [25]): 0
- Wheat plant response rating (wheat [2]; [24]): 10
- Plant response rating, Wheat (wheat [2]; [25]): 0
- Plant response rating, Kochia (kochia [3]; [26]): 90
- Plant response rating, Kochia (kochia [3]; [27]): 90
- Foxtail, Green plant response rating (green foxtail [4]; [24]): 100
- Plant response rating, Foxtail, Green (green foxtail [4]; [25]): 20
- Pigweed, Palmer plant response rating (pigweed, palmer [5]; [24]): 100
- Plant response rating, Pigweed, Palmer (pigweed, palmer [5]; [25]): 100
- Barnyardgrass plant response rating (barnyardgrass [6]; [24]): 70
- Plant response rating, Barnyardgrass (barnyardgrass [6]; [25]): 10
- Plant response rating, Barnyardgrass (barnyardgrass [7]; [26]): 30
- Plant response rating, Barnyardgrass (barnyardgrass [7]; [27]): 20
- Ryegrass, Italian plant response rating (ryegrass, Italian [8]; [24]): 70
- Plant response rating, Ryegrass, Italian (ryegrass, Italian [8]; [25]): 50
- Blackgrass plant response rating (blackgrass [9]; [24]): 0
- Plant response rating, Blackgrass (blackgrass [9]; [25]): 0
- Plant response rating, Oat, Wild (oat, wild [10]; [26]): 0
- Plant response rating, Oat, Wild (oat, wild [10]; [27]): 0
- Plant response rating, Rice (Flood) (rice): 0
- Plant response rating, Soybean (soybean [11]; [27]): 0
- Plant response rating, Blackgrass (blackgrass [12]; [26]): 20
- Plant response rating, Blackgrass (blackgrass [12]; [27]): 0
- Kochia plant response rating (kochia [13]; [24]): 70
- Plant response rating, Kochia (kochia [13]; [25]): 0
- Plant response rating, Pigweed, Palmer (pigweed, palmer [14]; [26]): 100
- Plant response rating, Pigweed, Palmer (pigweed, palmer [14]; [27]): 100
- Plant response rating, Corn (corn [15]; [26]): 10
- Plant response rating, Corn (corn [15]; [27]): 0
- Ragweed plant response rating (ragweed [16]; [24]): 80
- Plant response rating, Ragweed (ragweed [16]; [25]): 30
- Plant response rating, Foxtail, Green (green foxtail [17]; [26]): 40
- Plant response rating, Foxtail, Green (green foxtail [17]; [27]): 10
- Soybean plant response rating (soybean [18]; [24]): 20
- Plant response rating, Soybean (soybean [18]; [25]): 0
- Plant response rating, Ryegrass, Italian (ryegrass, Italian [19]; [27]): 0
- Plant response rating, Barnyardgrass (Flood) (barnyardgrass [20]): 0
- Plant response rating, Wheat (wheat [21]; [27]): 20
- Plant response rating, Sedge, Umbrella (Flood) (sedge, umbrella): 0
- Plant response rating, Horseweed (horseweed; [26]): 70
- Plant response rating, Horseweed (horseweed; [27]): 50
- Oat, Wild plant response rating (oat, wild [22]; [24]): 30
- Plant response rating, Oat, Wild (oat, wild [22]; [25]): 0
- Plant response rating, Ducksalad (Flood) (ducksalad): 0
- Plant response rating, Ragweed (ragweed [23]; [27]): 70

Compound: COc1cc(C(=O)N2C[C@H](C)Oc3c(Cl)cccc32)cc(-n2cnc(C3CCC3)n2)c1 [Compound 214]
- Plant response rating, Corn (corn [1]; [28]): 20
- Corn plant response rating (corn [1]; [29]): 10
- Plant response rating, Wheat (wheat [2]; [28]): 30
- Wheat plant response rating (wheat [2]; [29]): 10
- Plant response rating, Kochia (kochia [3]; [30]): 70
- Plant response rating, Kochia (kochia [3]; [31]): 100
- Plant response rating, Foxtail, Green (green foxtail [4]; [28]): 100
- Foxtail, Green plant response rating (green foxtail [4]; [29]): 100
- Plant response rating, Pigweed, Palmer (pigweed, palmer [5]; [28]): 100
- Pigweed, Palmer plant response rating (pigweed, palmer [5]; [29]): 100
- Plant response rating, Barnyardgrass (barnyardgrass [6]; [28]): 100
- Barnyardgrass plant response rating (barnyardgrass [6]; [29]): 50
- Plant response rating, Barnyardgrass (barnyardgrass [7]; [30]): 20
- Plant response rating, Barnyardgrass (barnyardgrass [7]; [31]): 20
- Plant response rating, Ryegrass, Italian (ryegrass, Italian [8]; [28]): 90
- Ryegrass, Italian plant response rating (ryegrass, Italian [8]; [29]): 80
- Plant response rating, Blackgrass (blackgrass [9]; [28]): 70
- Blackgrass plant response rating (blackgrass [9]; [29]): 20
- Plant response rating, Oat, Wild (oat, wild [10]; [30]): 20
- Plant response rating, Oat, Wild (oat, wild [10]; [31]): 20
- Plant response rating, Rice (Flood) (rice): 0
- Plant response rating, Soybean (soybean [11]; [30]): 100
- Plant response rating, Soybean (soybean [11]; [31]): 100
- Plant response rating, Blackgrass (blackgrass [12]; [30]): 0
- Plant response rating, Blackgrass (blackgrass [12]; [31]): 80
- Plant response rating, Kochia (kochia [13]; [28]): 100
- Kochia plant response rating (kochia [13]; [29]): 90
- Plant response rating, Pigweed, Palmer (pigweed, palmer [14]; [30]): 100
- Plant response rating, Pigweed, Palmer (pigweed, palmer [14]; [31]): 100
- Plant response rating, Corn (corn [15]; [30]): 60
- Plant response rating, Corn (corn [15]; [31]): 70
- Plant response rating, Ragweed (ragweed [16]; [28]): 0
- Ragweed plant response rating (ragweed [16]; [29]): 10
- Plant response rating, Foxtail, Green (green foxtail [17]; [30]): 30
- Plant response rating, Foxtail, Green (green foxtail [17]; [31]): 80
- Plant response rating, Soybean (soybean [18]; [28]): 80
- Soybean plant response rating (soybean [18]; [29]): 30
- Plant response rating, Ryegrass, Italian (ryegrass, Italian [19]; [30]): 20
- Plant response rating, Ryegrass, Italian (ryegrass, Italian [19]; [31]): 40
- Plant response rating, Barnyardgrass (Flood) (barnyardgrass [20]): 0
- Plant response rating, Wheat (wheat [21]; [30]): 20
- Plant response rating, Wheat (wheat [21]; [31]): 30
- Plant response rating, Sedge, Umbrella (Flood) (sedge, umbrella): 90
- Plant response rating, Horseweed (horseweed; [30]): 0
- Plant response rating, Horseweed (horseweed; [31]): 40
- Plant response rating, Oat, Wild (oat, wild [22]; [28]): 80
- Oat, Wild plant response rating (oat, wild [22]; [29]): 0
- Plant response rating, Ducksalad (Flood) (ducksalad): 70
- Plant response rating, Ragweed (ragweed [23]; [30]): 40
- Plant response rating, Ragweed (ragweed [23]; [31]): 40

From patent US20260262643A1, “HERBICIDAL BENZOXAZINES” (FMC CORPORATION, priority 2022, published 2026)
